The values below come from patent US10023836B2, “Medium for yeasts” (YAMAGUCHI UNIVERSITY, priority 2012, dated 2018).

Test [1] concerns RAK2683 yeast strain. In words: Candidate proliferation factors added to BM culture medium (FIG. 4). The conditions noted are these: 24 hours. The test is classed as cell-based, Saccharomyces cerevisiae. As for the experimental part:
Next, the yeast extract (M<5000) was further fractionated and proliferation was tested. […] As the substances having a molecular weight of roughly 500<M<1000, Acetyl-CoA, CoA, yeast RNA (RNA), and NAD were selected; each was added to a BM culture medium; and RAK2683 yeast strain was cultivated for 24 hours, after which OD600 was measured. Moreover, the yeast extract (YE)-added culture medium and YPD culture medium were treated as positive controls.

The test system of test [2] is Saccharomyces cerevisiae RAK3599 strain. Nature of the test: Glutamine, cysteine and amino acid groups in AYD′ / AYD culture medium (FIGS. 40, 41). The test is classed as cell-based. Here is the method:
For the AYD′ culture medium, an investigation was conducted into glutamine and cysteine concentrations using Saccharomyces cerevisiae RAK3599 strain.

For test [3], the system named is RAK3599 strain. In words: Investigation with AID and aY-AID culture medium (FIGS. 29 to 39). The class given is cell-based, Saccharomyces cerevisiae. Conditions: AID culture medium, up to 1% or up to 0.2500%. Here is the method:
As shown in the following, an investigation was conducted into concentrations of each amino acid and a substitution potential of pantothenic acid for the amino acid in the AID culture medium. A suitable YPD culture medium was used as a control.
Next, the amino acids asparagine, isoleucine, phenylalanine, and valine were each adjusted to a culture medium additive concentration of […], 0.0312%, 0.0625%, 0.1250%, and 0.2500%, and OD600 was measured after 24 hours.
Isoleucine concentration in the aY-AID culture medium was adjusted to 0, 0.01 mg/mL, 0.1 mg/mL, 0.5 mg/mL, and 1 mg/mL, respectively, and proliferation of the RAK3599 strain was investigated.
Phenylalanine concentration in the aY-AID culture medium was adjusted to 0, 0.01, 0.1, 0.5, and 1 mg/mL, respectively, and proliferation of the RAK3599 strain was investigated.
Valine concentration in the aY-AID culture medium was adjusted to 0, 0.01, 0.1, 0.5, and 1 mg/mL, respectively, and proliferation of the RAK3599 strain was investigated.
Serine concentration in the AID culture medium was adjusted to 0, 0.01 mg/mL, 0.1 mg/mL, 0.5 mg/mL, and 1 mg/mL, respectively, and proliferation of the RAK3599 strain was investigated.
Threonine concentration in the AID culture medium was adjusted to 0, 0.01, 0.1, 0.5, and 1 mg/mL, respectively, and proliferation of the RAK3599 strain was investigated.
Asparagine concentration in the AID culture medium was adjusted to 0, 0.01, 0.1, 0.5, and 1 mg/mL, respectively, and proliferation of the RAK3599 strain was investigated.
An investigation was conducted into vitamins contained in the AID culture medium. […]

Test [4] has as its system RAK2683 yeast strain. In words: Investigation of nitrogen source used singly in MM culture medium instead of ammonium sulfate (Table 4). The test is classed as cell-based, Saccharomyces cerevisiae. Conditions: Table 4 conditions.
Test [5] relates to Saccharomyces cerevisiae histidine-requiring BY4714 (his3Δ1) strain. In words: Histidine concentration in AKD culture medium (FIG. 17). The class given is cell-based. As for the experimental part: Histidine concentration in the AKD culture mediums was adjusted to 0.001%, 0.01%, 0.1%, and 1%, respectively, and proliferation of a Saccharomyces cerevisiae histidine-requiring BY4714 (his3Δ1) strain was investigated. A maximum value was reached between 0.01% and […]. OD600 for 1/100 solutions after 42 hours was 0.07, 0.18, 0.18, and 0.15, respectively. Given the above-noted results, a preferred histidine concentration was understood to be around 0.01%.

The subject of test [6] is Saccharomyces cerevisiae tryptophan-requiring BY4710 (trp1Δ) strain. Nature of the test: Tryptophan concentration in AKD culture medium (FIG. 18). The class given is cell-based. Here is the method: Tryptophan concentration in the AKD culture mediums was adjusted to 0.001%, 0.01%, 0.1%, and 1%, respectively, and proliferation of a Saccharomyces cerevisiae tryptophan-requiring BY4710 (trp1Δ) strain was investigated. OD600 for 1/100 solutions after 48 hours was 0.08, 0.15, 0.13, and 0.12, respectively. […] Given the above-noted results, a preferred tryptophan concentration was understood to be around 0.01%.

For test [7], the system named is RAK2683 yeast strain. The conditions noted are these: glucose not added to BM culture medium; 2% ethanol, 2% glycerol or 0.1 to 2% albumin; 24 hours.
Description: OD600 was measured after RAK2683 yeast strain had been cultivated for 24 hours in a culture medium in which between 0.1 and 2% albumin had been added to the BM culture medium.
Test [8] relates to RAK3599 strain. Nature of the test: Vitamin and FeCl3 concentration in AKD′ culture medium (FIGS. 22 to 28). The test is classed as cell-based, Saccharomyces cerevisiae. Conditions: for proliferation at a content of 0: AKD′ culture medium without the substance. As for the experimental part: In a case where no special provisions are made, a procedure for a cultivation experiment using the culture medium to be investigated for proliferation was such that a yeast undergoing investigation was pre-cultured in a YPD liquid culture medium at 28° C. for 24 hours, after which the yeast was adjusted such that OD600=20. […] In addition, OD600 was measured every 15 minutes by a spectrophotometer (Cell density meter co8000, WPA). Hereafter, data is represented by graphs for a case using the automatic spectrophotometer; however, these graphs are primarily used to compare the slope of logarithmic growth phase proliferation curves for each culture medium, and because OD600 is measured without dilution, values where OD600=3 to 3.5 or more may be incorrect.
Pyridoxine concentration in the AKD′ culture medium was adjusted to 0, 0.004, 0.04, 0.4, 4, and 40 μg/mL, respectively, and proliferation of the RAK3599 strain was investigated.
Pantothenic acid concentration in the AKD′ culture medium was adjusted to 0, 0.004, 0.04, 0.4, 4, and 40 μg/mL, respectively, and proliferation of the RAK3599 strain was investigated.
Thiamine concentration in the AKD′ culture medium was adjusted to 0, 0.004, 0.04, 0.4, 4, and 40 μg/mL, respectively, and proliferation of the RAK3599 strain was investigated.
Nicotinic acid concentration in the AKD′ culture medium was adjusted to 0, 0.004, 0.04, 0.4, 4, and 40 μg/mL, respectively, and proliferation of the RAK3599 strain was investigated.
Myo-inositol concentration in the AKD′ culture medium was adjusted to 0, 0.02 μg/mL, 0.2 μg/mL, 2 μg/mL, 20 μg/mL, and 200 μg/mL, respectively, and proliferation of the RAK 3599 strain was investigated.
FeCl3 concentration in the AKD′ culture medium was adjusted to 0, 0.002, 0.02, 0.2, 2, and 20 μg/mL, respectively, and proliferation of the RAK3599 strain was investigated.

The subject of test [9] is Candida glabrata BY23876 strain. In words: Nutritional requirements in AYD culture medium (FIG. 50). The test is classed as cell-based. The conditions noted are these: component eliminated from AYD culture medium. Here is the method:
In a case where no special provisions are made, a procedure for a cultivation experiment using the culture medium to be investigated for proliferation was such that a yeast undergoing investigation was pre-cultured in a YPD liquid culture medium at 28° C. for 24 hours, after which the yeast was adjusted such that OD600=20. Thereafter, 5 μL of culture solution was inoculated in 5 mL of each culture medium to be investigated, which had been dispensed into L-shaped test tubes (final OD60=0.02); aerobic roller tube culture was performed at 28° C.; and OD was continuously measured with an automatic spectrophotometer (BioPhoto recorder TVS062CA, […]). In addition, OD600 was measured every 15 minutes by a spectrophotometer (Cell density meter co8000, WPA). Hereafter, data is represented by graphs for a case using the automatic spectrophotometer; however, these graphs are primarily used to compare the slope of logarithmic growth phase proliferation curves for each culture medium, and because OD600 is measured without dilution, values where OD600=3 to 3.5 or more may be incorrect.
Nutritional requirements of each of the following yeast strains were investigated in the AYD culture medium, and utility of the AYD culture medium was confirmed. Each of the yeast strains was cultured under identical conditions using the basic culture method described above.

For test [10], the system named is Saccharomyces cerevisiae uracil-requiring BY4700 (ura3Δ) strain. In words: Uracil concentration in AKD culture medium (FIG. 19). The test is classed as cell-based. Here is the method:
A concentration of uracil contained in the amino acid mix of the AKD culture mediums for convenience was adjusted to 0.001%, 0.005%, 0.05%, 0.1%, and 0.5%, respectively, and proliferation of a Saccharomyces cerevisiae uracil-requiring BY4700 (ura3Δ) strain was investigated. OD600 for 1/100 solutions after 42 hours was 0.10, 0.21, 0.21, 0.22 and 0.20, respectively. Proliferation was confirmed to be low at 0.001%, to increase at 0.005%. and to markedly increase at between 0.05% and 0.1%. Proliferation was confirmed to be somewhat inhibited at 0.5%. Given the above-noted results, a preferred uracil concentration was understood to be around 0.01%.

Turning to `CC(=O)SCCNC(=O)CCNC(=O)[C@H](O)C(C)(C)COP(=O)(O)OP(=O)(O)OC[C@H]1O[C@@H](n2cnc3c(N)ncnc32)[C@H](O)[C@@H]1OP(=O)(O)O` [Acetyl-CoA], the “proliferation compared with YPD” value in the test on RAK2683 yeast strain [1] is reported as “none of them reaching the proliferation level of YPD”.

For `CC(C)(COP(=O)(O)OP(=O)(O)OC[C@H]1O[C@@H](n2cnc3c(N)ncnc32)[C@H](O)[C@@H]1OP(=O)(O)O)[C@@H](O)C(=O)NCCC(=O)NCCS` [CoA], the “proliferation compared with YPD” value with RAK2683 yeast strain [1] was “none of them reaching the proliferation level of YPD”.

Regarding `N[C@@H](CS)C(=O)O` [Cysteine, L-Cysteine], the appropriate concentration entry in test [2] (AYD′ culture medium) is “around 0.01 g/L”. The “effect on proliferation when added at high concentrations” value (from here on “effect on proliferation when added”) in the test on RAK3599 strain [3] is listed as “proliferation was confirmed to be inhibited”.

Turning to `NC(=O)CC[C@H](N)C(=O)O` [Glutamine, L-Glutamine], the appropriate concentration in test [2] (AYD′ culture medium) came out at 5 g/L. In addition, in test [2] (AYD′ culture medium, glutamine concentration set to 10 times the previous concentration), the growth result is on record as “growth was confirmed to be extremely improved”. Moreover, the “effect on proliferation when added” value in the test on RAK3599 strain [3] was “proliferation was confirmed to be inhibited”.

In the case of `Cl.N[C@@H](Cc1c[nH]cn1)C(=O)O.O` [Histidine, L-Histidine hydrochloride hydrate], the “proliferation when added singly as nitrogen source” value with RAK2683 yeast strain [4] is reported as “almost no proliferation”. Further, the preferred concentration entry in [5] is listed as “around 0.01%”. In addition, the “OD600 for 1/100 solutions after 42 hours” value in test [5] (histidine 0.001%) amounted to 0.07; in test [5] (histidine 0.01%), 0.18; in test [5] (histidine 0.1%), 0.18; in [5] (histidine 1%) it was 0.15.

As for `CSCC[C@H](N)C(=O)O` [Methionine, L-Methionine], the “proliferation when eliminated from the AYD culture medium” value in [2] (amino acid group or individual amino acid of the AY5 group eliminated) is recorded as “proliferation decreases”. For the same molecule, the “effect on proliferation when added” value with RAK3599 strain [3] is given as “proliferation was confirmed to be inhibited”.

`NC(=O)c1ccc[n+]([C@@H]2O[C@H](COP(=O)([O-])OP(=O)(O)OC[C@H]3O[C@@H](n4cnc5c(N)ncnc54)[C@H](O)[C@@H]3O)[C@@H](O)[C@H]2O)c1` [NAD]: in the test with RAK2683 yeast strain [1], the “proliferation compared with YPD” value is “none of them reaching the proliferation level of YPD”.

For `N[C@@H](Cc1c[nH]c2ccccc12)C(=O)O` [Tryptophan, L-Tryptophan], the “concentration at which proliferation was somewhat inhibited” value in test [6] was determined as 0.1%. In addition, the preferred concentration result in test [6] is on record as “around 0.01%”. Besides, the “OD600 for 1/100 solutions after 48 hours” value is listed as 0.08 in test [6] (tryptophan 0.001%), 0.15 in test [6] (tryptophan 0.01%), 0.13 in test [6] (tryptophan 0.1%) and 0.12 in test [6] (tryptophan 1%).

Turning to `CCO` [ethanol], the “proliferation as carbon source” value in the test on RAK2683 yeast strain [7] is recorded as “almost no proliferation”.

With `OCC(O)CO` [glycerol], the “proliferation as carbon source” value in the test on RAK2683 yeast strain [7] was “almost no proliferation”.

Turning to `O=C(O)c1cccnc1` [nicotinic acid], the “concentration at which proliferation reached a maximum value” in the test with RAK3599 strain [8] (AKD′ culture medium) amounted to 4 µg/mL. Moreover, the “concentration at which proliferation was inhibited” value in the test on RAK3599 strain [8] (AKD′ culture medium) came out at 40 µg/mL. Moreover, the preferred concentration entry in the test with RAK3599 strain [8] (AKD′ culture medium) is “around 4000 μg/L”. Besides, the “proliferation at a content of 0” value in the test on RAK3599 strain [8] is on record as “A significant degree of proliferation”. In addition, the “OD600 after 24 hours” value with RAK3599 strain [8] (AKD′ culture medium, nicotinic acid 0 μg/mL) worked out at 9; in the test on RAK3599 strain [8] (AKD′ culture medium, nicotinic acid 0.004 μg/mL), 10; in the test with RAK3599 strain [8] (AKD′ culture medium, nicotinic acid 0.04 μg/mL), 10; with RAK3599 strain [8] (AKD′ culture medium, nicotinic acid 0.4 μg/mL) it was 9; with RAK3599 strain [8] (AKD′ culture medium, nicotinic acid 4 μg/mL), 10; with RAK3599 strain [8] (AKD′ culture medium, nicotinic acid 40 μg/mL), 8. The “nutritional requirement of the strain” value in test [9] was “require”.

With `Cc1ncc(CO)c(CO)c1O.Cl` [pyridoxine, Pyridoxine hydrochloride], the preferred concentration entry in the test with RAK3599 strain [8] (AKD′ culture medium) is “around 400 μg/L”. Further, the “proliferation at a content of 0” value with RAK3599 strain [8] is “A fair degree of proliferation”. In test [9], the “nutritional requirement of the strain” value is reported as “require”.

With `O=c1cc[nH]c(=O)[nH]1` [uracil], the “concentration at which proliferation was somewhat inhibited” value in test [10] is recorded as 0.5%. In addition, the preferred concentration entry in test [10] was “around 0.01%”. For the same molecule, the “OD600 for 1/100 solutions after 42 hours” value in test [10] (uracil 0.001%) was determined as 0.10; in test [10] (uracil 0.005%), 0.21; in test [10] (uracil 0.05%) it was 0.21; in test [10] (uracil 0.1%), 0.22; in test [10] (uracil 0.5%) it was 0.20.

In the case of albumin, the “proliferation as carbon source” value with RAK2683 yeast strain [7] is reported as “almost no proliferation”.
